In US20140073634A1 (Institute For Applied Cancer Science/The University of …, priority 2012, published 2014):

Tested on: 293T-HRE-GFP-luc cells
Experiment: Cell-based reporter assay for IC50 determinations (HRE-luciferase, hypoxia)
Conditions: 6 h, 6 hrs hypoxia (1% O2), luminescence
Method in brief: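 293T-HRE-GFP-luc cells were pre-incubated with serially diluted compounds for 30 min under normoxia, then held 6 hrs in hypoxia (1% O2, 37° C). HRE-driven luciferase read by Steadylite Plus luminescence; IC50 from four-parameter logistic fit.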

SMILES	IC50
O=c1ccc(-c2nc(-c3ccc(OC(F)(F)F)cc3)no2)nn1Cc1cccc(OCCO)c1 [Example 179, 2-{[3-(2-hydroxyethoxy)phenyl]methyl}-6-{3-[4-(trifluoromethoxy)phenyl]-1,2,4-oxadiazol-5-yl}-2,3-dihydropyridazin-3-one]	< 100 nM
C#CCCCC(=O)N1CCN(c2cccc(Cn3cc(-c4nc(-c5ccc(OC(F)(F)F)cc5)no4)ccc3=O)c2)CC1 [Example 180]	< 100 nM
CC(=O)N1CCN(c2cccc(Cn3cc(-c4nc(-c5ccc(OC(F)(F)F)cc5)no4)ccc3=O)c2)CC1 [Example 182]	< 100 nM
CCOC(=O)CN1CCN(c2cccc(Cn3cc(-c4nc(-c5ccc(OC(F)(F)F)cc5)no4)ccc3=O)c2)CC1=O [Example 183, ethyl 2-(2-oxo-4-{3-[(2-oxo-5-{3-[4-(trifluoromethoxy)phenyl]-1,2,4-oxadiazol-5-yl}-1,2-dihydropyridin-1-yl)methyl]phenyl}piperazin-1-yl)acetate]	< 100 nM
CS(=O)(=O)C1CCN(c2cc(Cn3nc(-c4nc(-c5ccc(OC(F)(F)F)cc5)no4)ccc3=O)ccn2)CC1 [Example 184, 2-{[2-(4-methanesulfonylpiperidin-1-yl)pyridin-4-yl]methyl}-6-{3-[4-(trifluoromethoxy)phenyl]-1,2,4-oxadiazol-5-yl}-2,3-dihydropyridazin-3-one]	< 100 nM
CN1CCN(c2cccc(Cn3cc(-c4nc(-c5ccc(SC(F)(F)F)cc5)no4)ccc3=O)c2)CC1 [Example 185, 1-{[3-(4-methylpiperazin-1-yl)phenyl]methyl}-5-(3-{4-[(trifluoromethyl)sulfanyl]phenyl}-oxadiazol-5-yl)-1,2-dihydropyridin-2-one]	< 100 nM
CN1CCN(c2cccc(Cn3cc(-c4noc(-c5ccc(S(C)(=O)=O)cc5)n4)ccc3=O)c2)CC1 [Example 186, 5-[5-(4-methanesulfonylphenyl)-1,2,4-oxadiazol-3-yl]-1-{[3-(4-methylpiperazin-1-yl)phenyl]methyl}-1,2-dihydropyridin-2-one]	< 100 nM
COCCOc1cccc(Cn2cc(-c3noc(-c4ccc(S(=O)(=O)C(F)(F)F)cc4)n3)ccc2=O)c1 [Example 187, 1-{[3-(2-methoxyethoxy)phenyl]methyl}-5-[5-(4-trifluoromethanesulfonylphenyl)-1,2,4-oxadiazol-3-yl]-1,2-dihydropyridin-2-one]	< 100 nM
CN1CCN(c2cccc(Cn3cc(-c4noc(-c5ccc(S(=O)(=O)C(F)(F)F)cc5)n4)ccc3=O)c2)CC1 [Example 188, 1-{[3-(4-methylpiperazin-1-yl)phenyl]methyl}-5-[5-(4-trifluoromethanesulfonylphenyl)-1,2,4-oxadiazol-3-yl]-1,2-dihydropyridin-2-one]	< 100 nM
CN1CCN(c2cccc(Cn3cc(-c4noc(-c5ccc(OC(F)F)cc5)n4)ccc3=O)c2)CC1 [Example 189, 5-{5-[4-(difluoromethoxy)phenyl]-1,2,4-oxadiazol-3-yl}-1-{[3-(4-methylpiperazin-1-yl)phenyl]methyl}-1,2-dihydropyridin-2-one]	< 100 nM
COCCOc1cccc(Cn2cc(-c3noc(-c4ccc(N5CCOC5=O)cc4)n3)ccc2=O)c1 [Example 190, 1-{[3-(2-methoxyethoxy)phenyl]methyl}-5-{5-[4-(2-oxo-1,3-oxazolidin-3-yl)phenyl]-1,2,4-oxadiazol-3-yl}-1,2-dihydropyridin-2-one]	< 100 nM
COCCOc1cccc(Cn2cc(-c3noc(-c4ccc(OC)cc4)n3)ccc2=O)c1 [Example 191, 1-{[3-(2-methoxyethoxy)phenyl]methyl}-5-[5-(4-methoxyphenyl)-1,2,4-oxadiazol-3-yl]-1,2-dihydropyridin-2-one]	< 100 nM
COCCOc1cccc(Cn2cc(-c3noc(-c4ccc(C)cc4)n3)ccc2=O)c1 [Example 192, 1-{[3-(2-methoxyethoxy)phenyl]methyl}-5-[5-(4-methylphenyl)-1,2,4-oxadiazol-3-yl]-1,2-dihydropyridin-2-one]	< 100 nM
COCCOc1cccc(Cn2cc(-c3noc(-c4ccc(C(F)(F)F)cc4)n3)ccc2=O)c1 [Example 193, 1-{[3-(2-methoxyethoxy)phenyl]methyl}-5-{5-[4-(trifluoromethyl)phenyl]-1,2,4-oxadiazol-3-yl}-1,2-dihydropyridin-2-one]	< 100 nM
COCCOc1cccc(Cn2cc(-c3noc(-c4ccc(C#N)cc4)n3)ccc2=O)c1 [Example 194, 4-[3-(1-{[3-(2-methoxyethoxy)phenyl]methyl}-6-oxo-1,6-dihydropyridin-3-yl)-1,2,4-oxadiazol-5-yl]benzonitrile]	< 100 nM
COCCOc1cccc(Cn2cc(-c3noc(-c4ccc(C(C)C)cc4)n3)ccc2=O)c1 [Example 195, 1-{[3-(2-methoxyethoxy)phenyl]methyl}-5-{5-[4-(propan-2-yl)phenyl]-1,2,4-oxadiazol-3-yl}-1,2-dihydropyridin-2-one]	< 100 nM

SMILES	IC50
COCCOc1cccc(Cn2cc(-c3noc(-c4ccc(OC(C)C)cc4)n3)ccc2=O)c1 [Example 196, 1-{[3-(2-methoxyethoxy)phenyl]methyl}-5-{5-[4-(propan-2-yloxy)phenyl]-1,2,4-oxadiazol-3-yl}-1,2-dihydropyridin-2-one]	100 to 1000 nM
COCCOc1cccc(Cn2cc(-c3noc(-c4ccc(OC(F)F)cc4)n3)ccc2=O)c1 [Example 197, 5-{5-[4-(difluoromethoxy)phenyl]-1,2,4-oxadiazol-3-yl}-1-{[3-(2-methoxyethoxy)phenyl]methyl}-1,2-dihydropyridin-2-one]	< 100 nM
COCCOc1cccc(Cn2cc(-c3noc(-c4ccc(Cl)cc4)n3)ccc2=O)c1 [Example 198, 5-[5-(4-chlorophenyl)-1,2,4-oxadiazol-3-yl]-1-{[3-(2-methoxyethoxy)phenyl]methyl}-1,2-dihydropyridin-2-one]	< 100 nM
CNS(=O)(=O)c1ccc(-c2nc(-c3ccc(=O)n(Cc4cccc(OCCOC)c4)c3)no2)cc1 [Example 199, 4-[3-(1-{[3-(2-methoxyethoxy)phenyl]methyl}-6-oxo-1,6-dihydropyridin-3-yl)-1,2,4-oxadiazol-5-yl]-N-methylbenzene-1-sulfonamide]	100 to 1000 nM
COCCOc1cccc(Cn2cc(-c3noc(-c4ccc(N5CCOCC5)cc4)n3)ccc2=O)c1 [Example 200, 1-{[3-(2-methoxyethoxy)phenyl]methyl}-5-{5-[4-(morpholin-4-yl)phenyl]-1,2,4-oxadiazol-3-yl}-1,2-dihydropyridin-2-one]	< 100 nM
COCCOc1cccc(Cn2cc(-c3noc(-c4ccc(CC#N)cc4)n3)ccc2=O)c1 [Example 201, 2-{4-[3-(1-{[3-(2-methoxyethoxy)phenyl]methyl}-6-oxo-1,6-dihydropyridin-3-yl)-1,2,4-oxadiazol-5-yl]phenyl}acetonitrile]	< 100 nM
COCCOc1cccc(Cn2cc(-c3noc(-c4ccc(S(C)(=O)=O)cc4)n3)ccc2=O)c1 [Example 202, 5-[5-(4-methanesulfonylphenyl)-1,2,4-oxadiazol-3-yl]-1-{[3-(2-methoxyethoxy)phenyl]methyl}-1,2-dihydropyridin-2-one]	100 to 1000 nM
COCCOc1cccc(Cn2cc(-c3noc(-c4ccc(OCC(F)(F)F)cc4)n3)ccc2=O)c1 [Example 203, 1-{[3-(2-methoxyethoxy)phenyl]methyl}-5-{5-[4-(2,2,2-trifluoroethoxy)phenyl]-1,2,4-oxadiazol-3-yl}-1,2-dihydropyridin-2-one]	< 100 nM
CS(=O)(=O)CCCOc1cccc(Cn2cc(-c3noc(-c4ccc(N5CCOCC5)cc4)n3)ccc2=O)c1 [Example 204, 1-{[3-(3-methanesulfonylpropoxy)phenyl]methyl}-5-{5-[4-(morpholin-4-yl)phenyl]-1,2,4-oxadiazol-3-yl}-1,2-dihydropyridin-2-one]	< 100 nM
CS(=O)(=O)CCCOc1cccc(Cn2cc(-c3noc(-c4ccc(S(C)(=O)=O)cc4)n3)ccc2=O)c1 [Example 205, 5-[5-(4-methanesulfonylphenyl)-1,2,4-oxadiazol-3-yl]-1-{[3-(3-methanesulfonylpropoxy)phenyl]methyl}-1,2-dihydropyridin-2-one]	< 100 nM
CC(C)Oc1ccc(-c2nc(-c3ccc(=O)n(Cc4cccc(OCCCS(C)(=O)=O)c4)c3)no2)cc1 [Example 206, 1-{[3-(3-methanesulfonylpropoxy)phenyl]methyl}-5-{5-[4-(propan-2-yloxy)phenyl]-1,2,4-oxadiazol-3-yl}-1,2-dihydropyridin-2-one]	< 100 nM
CS(=O)(=O)CCCOc1cccc(Cn2cc(-c3noc(-c4ccc(OC(F)F)cc4)n3)ccc2=O)c1 [Example 207]	< 100 nM
COCCOc1cccc(Cn2cc(-c3noc(-c4ccc(C(C)=O)cc4)n3)ccc2=O)c1 [Example 208, 5-[5-(4-acetylphenyl)-1,2,4-oxadiazol-3-yl]-1-{[3-(2-methoxyethoxy)phenyl]methyl}-1,2-dihydropyridin-2-one]	< 100 nM
COCCOc1cccc(Cn2cc(-c3noc(-c4ccc(C5=CCSCC5)cc4)n3)ccc2=O)c1 [Example 209, 5-{5-[4-(3,6-dihydro-2H-thiopyran-4-yl)phenyl]-1,2,4-oxadiazol-3-yl}-1-{[3-(2-methoxyethoxy)phenyl]methyl}-1,2-dihydropyridin-2-one]	< 100 nM
CC(C)c1ccc(-c2nc(-c3ccc(=O)n(Cc4cccc(OCCCS(C)(=O)=O)c4)c3)no2)cc1 [Example 210, 1-{[3-(3-methanesulfonylpropoxy)phenyl]methyl}-5-{5-[4-(propan-2-yl)phenyl]-1,2,4-oxadiazol-3-yl}-1,2-dihydropyridin-2-one]	< 100 nM

Same assay, conditions: 6 hrs hypoxia (1% O2), luminescence

SMILES	IC50
CC(C)(C)[Si](C)(C)OCCOc1cccc(Cn2nc(-c3nc(-c4ccc(OC(F)(F)F)cc4)no3)ccc2=O)c1 [Example 178, 2-[(3-{2-[(tert-butyldimethylsilyl)oxy]ethoxy}phenyl)methyl]-6-{3-[4-(trifluoromethoxy)phenyl]-1,2,4-oxadiazol-5-yl}-2,3-dihydropyridazin-3-one]	100 to 1000 nM
